Assay results from patent publication US5246830A, “Enzymatic process for the determination of β-lactam antibiotics” (Ucb Bioproducts, S.A., priority 1990, dated 1993).

Tests used:
[1] = molecular target: T1, enzyme R39 (soluble D-alanyl-D-alanine carboxypeptidase produced by Actinomadura R39) (Actinomadura sp. R39, UniProt P39045); assay: Enzymatic determination of penicillin G in serum, spectrophotometer at 410 nm (Example 7); format: biochemical; set-up: Optical density (at 410 nm): scale not given here; details: for Optical density (at 410 nm): blank subtracted, supernatant diluted 10 times
T1 construct: added to milk or serum samples
T1 sequence (P39045 50-515): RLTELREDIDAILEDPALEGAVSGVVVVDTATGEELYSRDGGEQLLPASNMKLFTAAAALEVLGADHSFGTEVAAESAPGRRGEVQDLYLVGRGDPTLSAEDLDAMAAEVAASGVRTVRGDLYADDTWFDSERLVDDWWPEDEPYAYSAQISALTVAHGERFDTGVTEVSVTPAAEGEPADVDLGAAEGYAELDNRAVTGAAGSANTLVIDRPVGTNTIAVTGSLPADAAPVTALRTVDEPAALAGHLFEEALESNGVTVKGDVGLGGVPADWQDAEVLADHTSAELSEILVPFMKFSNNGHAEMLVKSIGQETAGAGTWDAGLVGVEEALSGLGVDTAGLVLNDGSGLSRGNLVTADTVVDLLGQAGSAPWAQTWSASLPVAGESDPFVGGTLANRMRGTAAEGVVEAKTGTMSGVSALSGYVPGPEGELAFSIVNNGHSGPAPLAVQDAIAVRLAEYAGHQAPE
Protocol: The procedure of example 3 is followed, but the 3 ml milk samples are replaced by 3 ml serum samples containing known concentrations of penicillin G.
Moreover, after the second incubation lasting 5 minutes, the samples are centrifuged and the supernatants are diluted 10 times with water.
Then, the optical density is measured with a spectrophotometer at 410 nm.
The values of the optical density mentioned in Table VII are obtained by subtracting the optical density value found for the blank sample from the optical density values found respectively for the control sample and for the other samples.

[2] = molecular target: T1, enzyme R39 (soluble D-alanyl-D-alanine carboxypeptidase produced by Actinomadura R39); assay: Enzymatic determination of penicillin G in 3 ml milk samples (Example 3); format: biochemical; details: for Coloration: 24 picomoles enzyme R39, 10 min + 5 min
Protocol: The process is the same as in Example 1, except that:
the samples contain 3 ml of milk (instead of 50 μl);
24 picomoles (instead of 1.5 picomole) of enzyme R39 dissolved in 150 μl of 0.5M Hepes buffer (pH=8.0) and 600 μl of an aqueous solution containing 100 mg/ml of D-alanine are added to each sample;
the first incubation lasts 10 minutes (instead of 4 minutes);
120 μl (instead of 5 μl) of the aqueous solution of [(N-benzoyl-D-alanyl)thio]-acetic acid and 120 μl of a phosphate buffer solution (pH=8.0) containing 5 mg/ml of 5,5'-dithiobis(2-nitrobenzoic) acid are then added, and
the second incubation lasts 5 minutes (instead of 1 minute).

[3] = molecular target: T1, enzyme R39 (soluble D-alanyl-D-alanine carboxypeptidase produced by Actinomadura R39); assay: Enzymatic determination of penicillin G in milk, substrate and reagent combined in a tablet (Example 8); format: biochemical; details: substrate + reagent as tablet
Protocol: The process is the same as in example 3. However, after the first incubation for a period of 10 minutes, a tablet is added which contains, 600 μg of [(N-benzoyl-D-alanyl)thio]-acetic acid and 600 μg of 5,5'-dithiobis(2-nitrobenzoic) acid.
This tablet has the following overall composition (in % by weight): […]

enzyme R39 = enzyme R39 (Actinomadura sp. R39, UniProt P39045); assay: Stability of the enzyme R39-antibiotic complex; format: binding; details: at 37° C.
enzyme R39, sequence (P39045 50-515): as above
Protocol: the extraordinary stability of the said complex, because, once formed it only breaks down very slowly. By way of example, the half-life of the complex formed between enzyme R39 and penicillin G is about 70 hours at 37° C.; and […]

[4] = molecular target: T1, enzyme R39 (soluble D-alanyl-D-alanine carboxypeptidase produced by Actinomadura R39); assay: Enzymatic determination of penicillin G in 50 μl milk samples, visual coloration (Example 1); format: biochemical; details: 1.5 picomole enzyme R39, 4 min + 1 min at 47° C.
Protocol: A series of 50 μl milk samples is prepared containing known concentrations of penicillin G, and two 50 μl milk samples free from penicillin G (blank and control).
1.5 picomole of enzyme R39, dissolved in 10 μl of 0.5M Hepes buffer (pH=8.0) containing 0.5M NaCl and 0.25M MgCl2, and 20 μl of an aqueous solution containing 50 mg/ml of D-alanine are added to each sample (control sample+samples containing penicillin G). In the blank sample, enzyme R39 dissolved in Hepes buffer is replaced by 10 μl of 0.5M Hepes buffer (pH=8.0), containing 0.5M NaCl and 0.25M MgCl2 (Hepes=4-hydroxyethyl-1-piperazineethanesulfonic acid). The mixture is incubated at 47° C. for 4 minutes.
Next, 5 μl of an aqueous solution containing 5 mg/ml [(N-benzoyl-D-alanyl)thio]-acetic acid and 10 μl of a phosphate buffer solution (pH=8.0; KH2 PO4 +K2 HPO4) containing 2 mg/ml of 5,5'-dithiobis(2-nitrobenzoic) acid are added and the mixture is incubated at 47° C. for 1 minute.
The colorations obtained in the various samples are then observed.

[5] = molecular target: T1, enzyme R39 (soluble D-alanyl-D-alanine carboxypeptidase produced by Actinomadura R39); assay: Enzymatic determination of penicillin G in milk with [(N-phenylacetyl-D-alanyl)thio]-acetic acid as substrate (Example 4); format: biochemical; details: substrate [(N-phenylacetyl-D-alanyl)thio]-acetic acid
Protocol: The process is the same as in example 3, except that, after the first incubation, 120 μl of an aqueous solution containing 5 mg/ml of [(N-phenylacetyl-D-alanyl)thio]-acetic acid are added.

[6] = molecular target: T1, enzyme R39 (soluble D-alanyl-D-alanine carboxypeptidase produced by Actinomadura R39); assay: Enzymatic determination of penicillin G in milk with various D-amino acids or glycine as activators (Example 5); format: biochemical
Protocol: The process is the same as in example 3, except that the aqueous solution containing 100 mg/ml of D-alanine (test I) is respectively replaced by an aqueous solution containing 100 mg/ml of D-phenylalanine (test II), of D-serine (test III), of D-histidine (test IV), of D-methionine (test V), of D-2-aminobutyric acid (test VI), or by an aqueous solution containing 200 mg/ml of glycine (test VII).

[7] = penicillin G 0.003 I.U./ml in 3 ml milk
[8] = penicillin G 0.006 I.U./ml in 3 ml milk

## CC1(C)S[C@@H]2[C@H](NC(=O)Cc3ccccc3)C(=O)N2[C@H]1C(=O)O [penicillin G, benzyl penicillin (penicillin G)]
[1]; penicillin G 0.002 I.U./ml in 3 ml serum
  Optical density (at 410 nm): 226
[1]; penicillin G 0.003 I.U./ml in 3 ml serum
  Optical density (at 410 nm): 175
[1]; penicillin G 0.004 I.U./ml in 3 ml serum
  Optical density (at 410 nm): 49
[1]; penicillin G 0.006 I.U./ml in 3 ml serum
  Optical density (at 410 nm): 15
[1]; serum
  penicillin G concentration determined quantitatively with a spectrophotometer: 0.002 I.U./ml
[2]; 3 ml milk, in 15 minutes
  penicillin G concentration in milk detected visually in large sample volumes: 0.004 I.U. per ml
[2]; penicillin G 0.002 I.U./ml in 3 ml milk
  Coloration: medium yellow
[2]; [7]
  Coloration: pale yellow
[2]; penicillin G 0.004 I.U./ml in 3 ml milk
  Coloration: white
[2]; [8]
  Coloration: white
[3]; penicillin G 0.002 (in 1.U.ml) in 3 ml milk
  Coloration: medium yellow
[3]; penicillin G 0.003 (in 1.U.ml) in 3 ml milk
  Coloration: pale yellow
[3]; penicillin G 0.004 (in 1.U.ml) in 3 ml milk
  Coloration: white
[3]; penicillin G 0.006 (in 1.U.ml) in 3 ml milk
  Coloration: white
Enzyme R39
  half-life of the complex formed between enzyme R39 and the antibiotic: about 70 hours
[4]; penicillin G 0.004 I.U./ml in 50 μl milk
  Coloration: intense yellow
[4]; penicillin G 0.008 I.U./ml in 50 μl milk
  Coloration: medium yellow
[4]; penicillin G 0.012 I.U./ml in 50 μl milk
  Coloration: pale yellow
[4]; penicillin G 0.016 I.U./ml in 50 μl milk
  Coloration: white
[4]; penicillin G 0.020 I.U./ml in 50 μl milk
  Coloration: white
[4]; penicillin G 0.025 I.U./ml in 50 μl milk
  Coloration: white
[5]; [7]
  Coloration: pale yellow
[5]; [8]
  Coloration: white
[6]; penicillin G 0.003 I.U./ml in 3 ml milk, test I, activator D-alanine 100 mg/ml
  Coloration: pale yellow
[6]; penicillin G 0.003 I.U./ml in 3 ml milk, test II, activator D-phenylalanine 100 mg/ml
  Coloration: pale yellow
[6]; penicillin G 0.003 I.U./ml in 3 ml milk, test III, activator D-serine 100 mg/ml
  Coloration: pale yellow
[6]; penicillin G 0.003 I.U./ml in 3 ml milk, test IV, activator D-histidine 100 mg/ml
  Coloration: pale yallow
[6]; penicillin G 0.003 I.U./ml in 3 ml milk, test V, activator D-methionine 100 mg/ml
  Coloration: pale yellow
[6]; penicillin G 0.003 I.U./ml in 3 ml milk, test VI, activator D-2-aminobutyric acid 100 mg/ml
  Coloration: pale yellow
[6]; penicillin G 0.003 I.U./ml in 3 ml milk, test VII, activator glycine 200 mg/ml
  Coloration: pale yellow
[6]; penicillin G 0.006 I.U./ml in 3 ml milk, test I, activator D-alanine 100 mg/ml
  Coloration: white
[6]; penicillin G 0.006 I.U./ml in 3 ml milk, test II, activator D-phenylalanine 100 mg/ml
  Coloration: white
[6]; penicillin G 0.006 I.U./ml in 3 ml milk, test III, activator D-serine 100 mg/ml
  Coloration: white
[6]; penicillin G 0.006 I.U./ml in 3 ml milk, test IV, activator D-histidine 100 mg/ml
  Coloration: white
[6]; penicillin G 0.006 I.U./ml in 3 ml milk, test V, activator D-methionine 100 mg/ml
  Coloration: white
[6]; penicillin G 0.006 I.U./ml in 3 ml milk, test VI, activator D-2-aminobutyric acid 100 mg/ml
  Coloration: white
[6]; penicillin G 0.006 I.U./ml in 3 ml milk, test VII, activator glycine 200 mg/ml
  Coloration: white
